In the supplement of paper PMC8617591:

Assays:
[1] = system: Mycobacterium tuberculosis Erdman (autoluminescent); test: AUC25, normalised area under dose response up to IC25 (three-drug combination) (fraction (0-1)); higher = more potent at low dose
Protocol: (§1)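 DiaMOND equipotent three-drug combination dose responses (10 doses, 1.5- or 2-fold spacing, centred on IC90) against autoluminescent M. tuberculosis Erdman in 8 in vitro models. Read-out is OD600, or luminescence for the intracellular and dormancy models, normalised to untreated wells. Hill-fit Einf, AUC25 and GRinf are potency metrics; FIC50 and FIC90 are total Loewe fractional inhibitory concentrations as log2 (negative = synergy).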

[2] = system: Mycobacterium tuberculosis Erdman (autoluminescent); test: Einf, fitted maximum growth inhibition of three-drug combination (fraction); higher = stronger maximal inhibition
Protocol: as §1

[3] = system: Mycobacterium tuberculosis Erdman (autoluminescent); test: total FIC50 (Loewe) at 50% inhibition, three-drug combination (log2); higher = more antagonistic
Protocol: as §1

[4] = system: Mycobacterium tuberculosis Erdman (autoluminescent); test: total FIC90 (Loewe) at 90% inhibition, three-drug combination (log2); higher = more antagonistic
Protocol: as §1

[5] = system: Mycobacterium tuberculosis Erdman (autoluminescent); test: GRinf, maximum normalised growth rate inhibition (three-drug combination) (unitless (-1 to 1)); higher = less effect (negative = killing)
Protocol: as §1

COc1nc2ccc(Br)cc2cc1[C@@H](c1ccccc1)[C@@](O)(CCN(C)C)c1cccc2ccccc12 [bedaquiline] + NNC(=O)c1ccncc1 [isoniazid] + CO[C@H]1/C=C/O[C@@]2(C)Oc3c(C)c(O)c4c(O)c(c(/C=N/N5CCN(C)CC5)c(O)c4c3C2=O)NC(=O)/C(C)=C\C=C\[C@H](C)[C@H](O)[C@@H](C)[C@@H](O)[C@@H](C)[C@H](OC(C)=O)[C@@H]1C [rifampicin]
Settings | AUC25, [1] | Einf, [2] | GRinf, [5] | total FIC50, [3] | total FIC90, [4]
in vitro model: acidic pH 5.7, time point: constant (~7 days, model-specific) | 0.108 | 0.955 | -0.45 | 0.796 | –
in vitro model: acidic pH 5.7, time point: terminal (~4-5 doublings, model-specific) | 0.089 | 0.99 | -0.282 | 0.663 | 0.706
in vitro model: intracellular J774, time point: constant = terminal | – | 0.965 | -0.25 | – | 0.354

Settings | AUC25, [1] | Einf, [2] | GRinf, [5] | total FIC50, [3] | total FIC90, [4]
in vitro model: butyrate, time point: constant (~7 days, model-specific) | 0.102 | 0.946 | -0.0859 | 0.575 | 0.602
in vitro model: butyrate, time point: terminal (~4-5 doublings, model-specific) | 0.0879 | 0.977 | -0.052 | 0.331 | 0.56
in vitro model: cholesterol 0.05 mM, time point: constant (~7 days, model-specific) | 0.0808 | 0.689 | -0.157 | -0.117 | –
in vitro model: cholesterol 0.05 mM, time point: terminal (~4-5 doublings, model-specific) | 0.0785 | 0.918 | -0.164 | 0.536 | -0.254
in vitro model: cholesterol-high 0.2 mM, time point: constant (~7 days, model-specific) | 0.0768 | 0.978 | -0.43 | 0.606 | –
in vitro model: cholesterol-high 0.2 mM, time point: terminal (~4-5 doublings, model-specific) | 0.0551 | 0.998 | -0.606 | 0.868 | 0.598
in vitro model: dormancy (butyrate + nitrate, low O2), time point: constant (~7 days, model-specific) | 0.0706 | 0.908 | 0.222 | 0.635 | 0.621
in vitro model: dormancy (butyrate + nitrate, low O2), time point: terminal (~4-5 doublings, model-specific) | 0.0374 | 0.987 | -0.16 | 0.347 | 0.0703
in vitro model: standard 7H9 glycerol, time point: constant = terminal | 0.0722 | 0.939 | -0.0733 | 0.27 | 0.0151
in vitro model: valerate, time point: constant (~7 days, model-specific) | 0.0578 | 0.912 | -0.0907 | 1.13 | –
in vitro model: valerate, time point: terminal (~4-5 doublings, model-specific) | 0.0274 | 0.963 | -0.0942 | 1.33 | 1.01

COc1nc2ccc(Br)cc2cc1[C@@H](c1ccccc1)[C@@](O)(CCN(C)C)c1cccc2ccccc12 [bedaquiline] + NNC(=O)c1ccncc1 [isoniazid] + COc1c(N2C[C@@H]3CCCN[C@@H]3C2)c(F)cc2c(=O)c(C(=O)O)cn(C3CC3)c12 [moxifloxacin]
Settings | AUC25, [1] | Einf, [2] | GRinf, [5] | total FIC50, [3] | total FIC90, [4]
in vitro model: acidic pH 5.7, time point: constant (~7 days, model-specific) | 0.098 | 0.7 | -0.325 | 0.527 | –
in vitro model: acidic pH 5.7, time point: terminal (~4-5 doublings, model-specific) | 0.0943 | 0.958 | -0.313 | 0.604 | 0.776
in vitro model: intracellular J774, time point: constant = terminal | – | 0.972 | -0.784 | – | 1.2

Settings | AUC25, [1] | Einf, [2] | GRinf, [5] | total FIC50, [3] | total FIC90, [4]
in vitro model: butyrate, time point: constant (~7 days, model-specific) | 0.0762 | 0.94 | -0.0717 | 0.776 | 0.906
in vitro model: butyrate, time point: terminal (~4-5 doublings, model-specific) | 0.0478 | 0.973 | -0.0805 | 0.672 | 0.575
in vitro model: cholesterol 0.05 mM, time point: constant (~7 days, model-specific) | 0.0995 | 0.742 | -0.202 | 0.612 | –
in vitro model: cholesterol 0.05 mM, time point: terminal (~4-5 doublings, model-specific) | 0.0886 | 0.923 | -0.178 | 0.549 | -0.479
in vitro model: cholesterol-high 0.2 mM, time point: constant (~7 days, model-specific) | 0.0861 | 0.952 | -0.436 | 0.394 | 0.57
in vitro model: cholesterol-high 0.2 mM, time point: terminal (~4-5 doublings, model-specific) | 0.0461 | 0.991 | -0.601 | 0.581 | 0.234
in vitro model: dormancy (butyrate + nitrate, low O2), time point: constant (~7 days, model-specific) | 0.0686 | 0.938 | 0.161 | 0.895 | 0.336
in vitro model: dormancy (butyrate + nitrate, low O2), time point: terminal (~4-5 doublings, model-specific) | 0.0705 | 0.997 | -0.252 | 0.646 | 0.782
in vitro model: standard 7H9 glycerol, time point: constant = terminal | 0.0816 | 0.987 | -0.154 | 0.375 | 0.614
in vitro model: valerate, time point: constant (~7 days, model-specific) | 0.1 | 0.925 | -0.134 | 0.901 | –
in vitro model: valerate, time point: terminal (~4-5 doublings, model-specific) | 0.067 | 0.949 | -0.0225 | 0.672 | 1.33

COc1nc2ccc(Br)cc2cc1[C@@H](c1ccccc1)[C@@](O)(CCN(C)C)c1cccc2ccccc12 [bedaquiline] + NNC(=O)c1ccncc1 [isoniazid] + NC(=O)c1cnccn1 [pyrazinamide]
Settings | AUC25, [1] | Einf, [2] | GRinf, [5] | total FIC50, [3] | total FIC90, [4]
in vitro model: acidic pH 5.7, time point: constant (~7 days, model-specific) | 0.0904 | 0.873 | -0.529 | 0.0123 | –
in vitro model: acidic pH 5.7, time point: terminal (~4-5 doublings, model-specific) | 0.0797 | 0.981 | -0.413 | 0.0722 | 0.15
in vitro model: intracellular J774, time point: constant = terminal | – | 0.987 | -0.53 | – | 0.651

Settings | AUC25, [1] | Einf, [2] | GRinf, [5] | total FIC50, [3] | total FIC90, [4]
in vitro model: butyrate, time point: constant (~7 days, model-specific) | 0.0809 | 0.949 | -0.109 | 0.406 | 0.726
in vitro model: butyrate, time point: terminal (~4-5 doublings, model-specific) | 0.0598 | 0.978 | -0.0731 | 0.373 | 0.404
in vitro model: cholesterol 0.05 mM, time point: constant (~7 days, model-specific) | 0.103 | 0.726 | -0.236 | – | –
in vitro model: cholesterol 0.05 mM, time point: terminal (~4-5 doublings, model-specific) | 0.102 | 0.935 | -0.279 | 0.232 | –
in vitro model: cholesterol-high 0.2 mM, time point: constant (~7 days, model-specific) | 0.0921 | 0.995 | -0.637 | 0.548 | –
in vitro model: cholesterol-high 0.2 mM, time point: terminal (~4-5 doublings, model-specific) | 0.068 | 1 | -0.598 | 0.805 | 0.505
in vitro model: dormancy (butyrate + nitrate, low O2), time point: constant (~7 days, model-specific) | 0.0789 | 0.922 | 0.125 | -0.318 | -0.645
in vitro model: dormancy (butyrate + nitrate, low O2), time point: terminal (~4-5 doublings, model-specific) | 0.0524 | 0.992 | -0.123 | 0.063 | -0.625
in vitro model: standard 7H9 glycerol, time point: constant = terminal | 0.0575 | 0.957 | -0.0565 | 0.231 | –
in vitro model: valerate, time point: constant (~7 days, model-specific) | 0.0999 | 0.847 | 0.0396 | 0.527 | –
in vitro model: valerate, time point: terminal (~4-5 doublings, model-specific) | 0.0629 | 0.953 | -0.0326 | 0.64 | 1.01
